“Also recorded” adds a separate entry of the source. Read-outs that look alike come from different tables or passages of the source.
What was measured:
vaccinia virus [1] = assay: microbe, parasite or virus in culture; assay type: cell-based; details: Orthopoxvirus vaccinia
[2] = target: vaccinia triad (A20, D4, E9) (Vaccinia virus (strain Western Reserve) (VACV) (Vaccinia virus (strain WR)), UniProt P06856); assay type: biochemical
in vitro = details: African green monkey
[3] = target: triad (A20, D4, E9) (Vaccinia virus (strain Western Reserve) (VACV) (Vaccinia virus (strain WR)), UniProt P06856); assay type: biochemical
BSC-1 cells [4] = details: 100 μM
vaccinia virus [5] = assay type: cell-based
[6] = target: vaccinia E9 polymerase (Vaccinia virus (strain Western Reserve) (VACV) (Vaccinia virus (strain WR)), UniProt P06856); assay type: biochemical
BSC-1 cells [7] = assay: Cell viability at plaque IC50, MTT assay; details: at plaque IC50 (1.6 μM), 16 h
Procedure: (§1) The cell viability at the plaque IC50 value was performed using two independent methods, cell counting and MTT assay. For the cell counting method, cells were incubated overnight at 37° C. to sub-confluency in 48-well plates. The compounds dissolved in DMSO, were further diluted in media to a final concentration required to achieve the plaque IC50 value. The cells were incubated with the compounds for 24 hrs. The media was removed, the cells trypsinized and stained with tryphan blue, and counted. The MTT assay was also used to confirm cell viability at the plaque IC50. Cells were seeded at 1.5×10^4 cells/well in a 96-well plate and incubated overnight at 37° C. at 5% CO2. […] Each well received 20 μL of the MTT solution (5 mg MTT/mL PBS) and the plate was rocked for 5 min. The plates were incubated for an additional 5 h to metabolize MTT, after which the media was removed, and the plates were air dried. To resuspend the formazan, the end product of the MTT assay, 200 μL of DMSO was added to each well and the plates were rocked for 5-10 min. Absorbance was read at 560 nm.

vaccinia virus [8] = assay: microbe, parasite or virus in culture; details: Orthopoxvirus vaccinia, BSC-1, 16 h, read-out: Plaque IC50
[9] = target: vaccinia E9 DNA polymerase (Vaccinia virus (strain Western Reserve) (VACV) (Vaccinia virus (strain WR)), UniProt P06856); assay: biochemical
vaccinia virus [10] = details: African green monkey
vaccinia late L1 protein = assay type: cell-based, vaccinia virus
[11] = tested on: vaccinia late gene F9 mRNA; assay type: cell-based, vaccinia virus
[12] = tested on: vaccinia early gene E3 mRNA; assay type: cell-based, vaccinia virus
[13] = aCella-TOX GAPDH release cytotoxicity assay (viridicatumtoxin study); details: African green monkey, BSC-1 cells
BSC-1 cells [14] = assay: as above; details: cells exposed to 200 μM
BSC-1 cells [15] = assay: Cell viability at plaque IC50, cell counting; details: at plaque IC50 (1.6 μM), 24 hrs
Procedure: as §1

[16] = tested on: vaccinia early E3 protein; assay type: cell-based, vaccinia virus

Oc1ccc(Cl)cc1Sc1cc(Cl)ccc1O [NSC 55636, 2,2′-thiobis(4-chlorophenol)]
inhibition at 100 µM (vaccinia virus [1]; BSC-1, 1 h, read-out: Inhibition of plaques): 95% | EC50 (vaccinia virus [1]; BSC-1, read-out: EC50 (concentration at which compound reduced plaques by 50%)): 5 µM | Effect on synthesis of M13 DNA [2]: blocked by increasing concentrations | CC50 (in vitro): > 200 µM | Effect on DNA synthesis by the triad on the distal template [3]: also blocked the distal template | Cell Cytotoxicity (BSC-1 cells [4]): 14% | Cell Cytotoxicity (BSC-1 cells [4]; listed as 55636): 14% | Blocking the replication of vaccinia virus in cells (vaccinia virus [5]): effective in blocking the replication of vaccinia virus in cells | Effect on E9 polymerase activity on the uniform template [6]: prevented E9 from incorporating nucleotides on the uniform template; also recorded: inhibited the catalytic activity of E9 DNA polymerase; also recorded: blocked polymerase activity | Targeted Activity (% Inhibition): Polymerase [6]: Polymerase (74%)

COc1cc(O)c2c(O)c3c(c4c2c1[C@]1(C4)C(C)=CCCC1(C)C)[C@H](O)[C@@]1(O)CC(O)=C(C(N)=O)C(=O)[C@@]1(O)C3=O [Viridicatumtoxin, viridicatumtoxin]
% cell viability on plaque IC50, MTT (BSC-1 cells [7]): 83 ± 16% | % cell viability on plaque IC50, MTT (BSC-1 cells [7]; listed as viridicatumtoxin): about 85% | IC50 (vaccinia virus [8]): 1.6 µM | IC50 [9]: 63 µM | Concentration at which the cells began to detach (vaccinia virus [10]): ≥ 100 µM | Late L1 protein level (vaccinia late L1 protein): significantly decreased | Late F9 mRNA expression [11]: only a marginal increase in F9 mRNA expression by 5 h.p.i. | Early E3 mRNA production [12]: maximum at 3 h.p.i. and dropped back to low levels by 5 h.p.i. | Blocking the replication of vaccinia virus in cells (vaccinia virus [5]): particularly effective | CC50 [13]: > 200 µM | Cytotoxicity at highest exposure (BSC-1 cells [14]): not cytotoxic | % cell viability on plaque IC50, Cell count (BSC-1 cells [15]): 92 ± 23% | % cell viability on plaque IC50, Cell count (BSC-1 cells [15]; listed as viridicatumtoxin): About 90% | Early E3 protein level [16]: no significant difference in the levels of E3
